# Results from patent US20210322350A1, “EXOGENOUS KETONE SUPPLEMENTATION COMPOSITIONS, SYSTEMS AND METHODS” (Ketone Clarity LLC, priority 2020, published 2021).
# Assays:
# [1] = Glucose/Ketone Index (GKI); format: in vivo, human
# Protocol: Introducing GKI: Measuring Glucose vs Ketones. FIG. 8 is a schematic illustration of the Glucose/Ketone Index. When measuring both blood ketone levels and blood glucose levels, taking reference from the Glucose/Ketone Index (GKI) can help guide a user to achieve therapeutic benefits according to the claimed invention. The Glucose/Ketone Index is measured by dividing the blood level of glucose by the blood level of ketones measured in mmol/L. By way of illustration, a healthy individual not following the ketogenic diet could have glucose levels of 5.0 mmol/L and ketone levels of 0.1 mmol/L. According to the GKI they would have a value of greater than 9 and as such would not be in ketosis. An individual following the ketogenic diet and potentially supplementing their diet with ketone salts or MCT oil may have a glucose level of 5.6 mmol/L and ketone level of 1.3 mmol/L, resulting in a GKI of 4.3. This moderate ketosis level can be useful for managing obesity and diabetes.
# (§1) FIG. 9 is a graphical illustration of blood levels of ketones and glucose resulting from the claimed invention. In the graphical illustration, body ketone levels increase from 1.4 mmol/L to 2.7 mmol/L after 50 minutes of consuming 10 g of D-BHB. […]
# [2] = Bone density measurements during D-BHB consumption; format: in vivo; settings: 10 g daily; period during which bone loss was expected
# From the text: FIG. 20 is a graphical illustration of sustained bone protection resulting from enhanced D-BHB levels according to the claimed invention. Loss of bone density can be statistically predicted and measured during specific time of life events such as post-menopause as well as during space missions for astronauts in space. […] Similar benefits against bone loss for space based applications are indicated and expected with consumption of 20 g of exogenous D-BHB daily.
# [3] = Systolic and diastolic blood pressure after D-BHB ingestion; format: in vivo; settings: 10 g; measurable within an hour, remains several hours
# From the text: FIG. 12 is a graphical illustration of improved blood pressure resulting from enhanced D-BHB levels according to the claimed invention. In addition to increasing blood ketones and lowering blood glucose, consumption of exogenous D-BHB according to the claimed invention also has a direct and measurable impact on lowering blood pressure. […] Blood pressure reduction is measurable within an hour of ingestion and is positive effects of lower blood pressure remain for several hours afterwards.
# [4] = Sensation of hunger after waking; format: in vivo; settings: several hours after rising in the morning
# From the text: FIG. 15 is a graphical illustration of lowered hunger resulting from enhanced D-BHB levels according to the claimed invention. While the sensation of hunger itself arises from a complex interplay of glucose, insulin and the hormone ghrelin, identification and measurement of hunger is easy and straightforward according to the claimed invention. Hunger is often a key reason why diet attempts such as attempting to follow the ketogenic diet or other diets fail. Hunger is also a significant impediment to individuals attempting to undergo a fasting state for health or other purposes. While even consuming a moderate amount such as 5 g of exogenous natural D-BHB ketone supplement can reduce the sensation of hunger, regular consumption of larger amounts such as 10 g-20 g represent a preferred embodiment of the claimed invention. […] Hunger reduction, however, is provided at any time of day according to the claimed invention and is not just morning dependent.
# [5] = Blood ketone levels after exogenous ketone supplementation; format: in vivo, human
# From the text: Technical effect: raising blood ketone levels by currently known methods. FIG. 6 is a graphical illustration of exogenous ketone blood levels by three precursors using Medium Chain Triglycerides, ketone salts and ketone esters. […] In the healthy adult, blood ketone levels can be naturally raised from a 0.0 mmol/L baseline to 0.5 mmol/L while following a normal diet.
# While MCT oil can raise blood ketone levels for a long duration, often the rise in ketone levels is nominal at best with a 0.5 mmol/L increase. Ketone salts can raise blood ketone levels to 1.5 mmol/L, but often do so with a metabolic load of heavy salt ingestion along with an undesired racemic mixture of both ‘D’ and ‘L’ isomers of BHB. The so called “ketone ester” synthetic products can raise blood ketone levels to 2-4 mmol/L when consumed at 30-35 g of product but the result is often short lasting.
# FIG. 7 is a graphical illustration of D-BHB exogenous ketone blood levels.
# as §1
# [6] = Sleep cycles (deep and light sleep time) with D-BHB taken prior to sleep; format: in vivo; settings: over several sleep cycles
# From the text: During deep sleep, a variety of functions take place in the mind and body. During deep sleep not only does physical recovery occur. The brain recuperates as well during which memories are consolidated and learning and emotions are processed. Physiologically, blood sugar levels and metabolism balance out and the immune system is energized. FIG. 11 is a graphical illustration of improved sleep time resulting from enhanced D-BHB levels according to the claimed invention based on the data detailed in Table 1.
# The data gathered in Table 1 reflects unaided sleep cycles in bold together with sleep aided by 10-20 g D-BHB which is reflective of a preferred embodiment of the claimed invention. On average, unaided sleep results in approximately 1.5 hours of deep sleep in an eight hour sleep cycle. […] In a preferred and foreseen embodiment of the claimed invention, improved deep sleep is achieved as a result of exogenous ketone D-BHB supplementation.
# [7] = Blood glucose levels after D-BHB consumption; format: in vivo, human
# Protocol: FIG. 9 is a graphical illustration of blood levels of ketones and glucose resulting from the claimed invention. In the graphical illustration, body ketone levels increase from 1.4 mmol/L to 2.7 mmol/L after 50 minutes of consuming 10 g of D-BHB. While ketone levels increase, glucose levels are decreased from 5.2 mmol/L to 4.8 mmol/L. While blood ketone rates can change rapidly as ketones are consumed through exercise or metabolic activity, the lowering of glucose often happens over a prolonged period of time. Consequently, this example is a good introduction to the regulatory effects of the ketone body D-BHB which are independent of and often outlast the energy benefits provided by exogenous ketones even after they are consumed by the body.
# FIG. 14 is a graphical illustration of lowered blood glucose measured in mmol/L as a result of daily 10 g consumption resulting from enhanced D-BHB levels according to the claimed invention. Diet plays a key role in the onset and progression of Type II diabetes and pre-diabetic conditions. The hallmark indication of the progression of this disease is identified through measurement of blood glucose levels. […] In a preferred embodiment 10-20 g of D-BHB are consumed, but more or less can be utilized in other embodiments of the claimed invention.
# [8] = Physical endurance on a measured exercise course; format: in vivo
# From the text: FIG. 16 is a graphical illustration of improved physical endurance resulting from enhanced D-BHB levels according to the claimed invention. While understanding of the mechanism of ketone enhancement of physical endurance is only beginning, there is a direct and measurable benefit of consumption of natural D-Beta HydroxyButyric acid to enhance physical exertion and post-exercise activity recovery. FIG. 16 illustrates the physical performance parameter in which a subject with and without natural D-BHB ketone supplementation is impeded by shortness of breath and muscle pain and drop in performance owing to lactic acid build-up in the body. Without natural D-BHB ketone supplementation on a measured exercise course pain and fatigue will occur after 27 minutes. […] While preferred consumption of natural D-BHB can range from 10 g-30 g of natural D-BHB, lesser or greater amounts may also be safely consumed for exercise improvement and benefits.
# [9] = Anti-depression and anti-anxiety mood enhancement; format: in vivo; settings: in the absence of anti-depressant and/or anti-anxiety medication; at least 10 g at least twice per day
# From the text: FIG. 18 is a graphical illustration of improved mental anti-depression and anti-anxiety activity resulting from enhanced D-BHB levels according to the claimed invention. […] While preferred consumption of natural D-BHB can range from 10 g-30 g of natural D-BHB, a best illustrative example reflects at least 10 g exogenous D-BHB supplementation at least twice per day.
# [10] = Blood oxygen levels before and after D-BHB; format: in vivo; settings: 30 minutes after 10 g; from 80%
# From the text: FIG. 13 is a graphical illustration of enhanced blood oxygen resulting from enhanced D-BHB levels according to the claimed invention.
# [11] = Gout pain and inflammation; format: in vivo
# From the text: FIG. 21 is a graphical illustration of gout reduction resulting from enhanced D-BHB levels according to the claimed invention. Owing to the role of exogenous natural D-BHB as a regulatory element of the NLRP3 inflammasome, inflammations are reduced as a direct result of exogenous D-BHB supplementation. In a preferred embodiment, 10 g or more of D-Beta HydroxyButyric acid is consumed daily to reduce gout flare-ups.
# [12] = test system: HDAC; settings: cited from earlier work
# [13] = consumed at 30-35 g of product; short lasting; cited from earlier work
# [14] = 750 mg/kg by gavage 24 hours after 0.5 or 6 Gy radiation; cited from earlier work
compound,measurement,setting,value
"CC(O)CC(=O)O [D-BHB, D-Beta-HydroxyButyric Acid]",Glucose/Ketone Index (GKI),[1]; after consuming 10 g,1.8
same,GKI levels,[1]; regular D-BHB consumption,1-3
same,bone density,[2],bone density health and retention
same,systolic and diastolic blood pressure,[3],measurable decrease
same,sensation of hunger,[4],greater reduction to even omission of hunger sensations
same,body ketone level,"[5]; 50 minutes after consuming 10 g, from 1.4 mmol/L",2.7 mmol/L
same,blood ketone levels versus existing methods,[5]; consumption of 10-30 g,higher blood ketone levels
same,extension of deep sleep,[6],extended by over an hour
same,glucose level,"[7]; after consuming 10 g, from 5.2 mmol/L",4.8 mmol/L
same,blood glucose level,"[7]; daily 10 g consumption, baseline over 7 mmol/L",≤ 4 mmol/L
same,post-workout recovery time,[8],markedly reduced
same,range of performance before pain and fatigue,[8]; 27 minutes without supplementation,44 min
same,cognitive mood enhancement,[9],cognitive improvement
same,blood oxygen level,[10],99%
same,gout pain,"[11]; 15 g, in three days",from extreme to very moderate
same,gout inflammation,"[11]; continued daily consumption, in less than one week",entirely removed gout inflammation
CC(O)CC(=O)[O-].[Na+] (centres unmarked) [b-OHB],renal dysfunction,[12]; IR-injured kidney,ameliorated renal dysfunction
same,HDAC activity in the IR-injured kidney,[12],inhibited HDAC activity
"C[C@@H](O)CCOC(=O)C[C@@H](C)O [ketone ester, (R)-3-hydroxybutyl (R)-3-hydroxybutyrate]",blood ketone levels raised to,[13],2 to 4 mmol/L
same,radiation-induced decrease of reticulocyte/erythrocyte ratio in bone marrow,[14],significantly attenuated
